Assay results published in patent publication US11090290B2, “Clonidine and/or clonidine derivatives for use in the prevention of skin injury resulting from radiotherapy” (MONOPAR THERAPEUTICS INC., priority 2015, dated 2021).

Key:
[1] = tested on: skin injury following radiotherapy in patients with head and neck cancer; details: mucoadhesive buccal tablet 50 μg once daily, from 1 to 3 days before radiotherapy until its end, up to 8 weeks; 50 to 70 Gray plus platinum-based chemotherapy; placebo group 38.7%
Description: These patients received, within 15 weeks after curative surgery, a cumulative radiation dose of radiation ranging from 50 to 70 Gray in oral cavity, based on a daily dosing between 1.8 and 2.2 Gy, combined with platinum-based chemotherapy, based on a weekly or tri-weekly cycle. Clonidine was administered in the form of a mucoadhesive tablet that was applied into the mouth, on the upper gum, for about 30 seconds, after which it remained in place for several hours. The treatment with clonidine hydrochloride started from 1 to 3 days before radiotherapy until the end of radiotherapy, for up to 8 weeks. Patients were evaluated twice a week during the radiotherapy period, then one month after stop of radiotherapy.

[2] = tested on: radiation skin injury; details: Journal of Clinical Oncology, Vol. 29, No 20, 2011; even worsened skin adverse reactions; cited from earlier work

Row | Compound | patients showing skin injury after treatment [1] [%] | effect on radiation skin injury compared to a placebo [2]
1 | Cl.Clc1cccc(Cl)c1NC1=NCCN1 [clonidine hydrochloride] | 25.5 | –
2 | palifermin | – | not to improve radiation skin injury compared to a placebo
